Measured values published in patent publication US12473324B2, “Triazine-based amphiphilic compound and use thereof” (INDUSTRY-UNIVERSITY COOPERATION FOUNDATION HANYANG …, priority 2019, dated 2025).

Key:
[1] = molecular target: T1, μ-opioid receptor (MOR) (Mus musculus, UniProt P42866); conditions: LMNG not among the compounds of the described test; cited from earlier work
[2] = Critical micelle concentration (CMC) by fluorescent dye diphenylhexatriene (DPH); assay type: physicochemical; conditions: DPH fluorescence
Procedure: A method of measuring the CMC is not particularly limited, but a method widely known in the art may be used, and for example, the CMC may be measured by a fluorescent staining method using diphenylhexatriene (DPH).
(§1) Specifically, the critical micelle concentrations (CMCs) were measured using a fluorescent dye, diphenylhexatriene (DPH), and the hydrodynamic radii (Rh) of micelles formed by each preparation (1.0 wt %) were determined by a dynamic light scattering (DLS) experiment. The measured results are shown in Table 1 compared to DDM which is an existing amphiphilic molecule (detergent).

[3] = Hydrodynamic radius (Rh) of micelles by dynamic light scattering (DLS); assay type: physicochemical; conditions: 1.0 wt % detergent
Procedure: A method of measuring the radius of micelle is not particularly limited, but a method widely known in the art may be used, and for example, the radius of micelle may be measured using a dynamic light scattering (DLS) experiment.
as §1

[4] = Solubility of detergent (Table 1); assay type: physicochemical
[5] = tested on: leucine transporter (LeuT); test: LeuT structural stability: [3H]-Leu binding by scintillation proximity assay (SPA); assay type: biochemical, Aquifex aeolicus; conditions: CMC+0.04 wt % or CMC+0.2 wt %, room temperature, 13-day incubation, [3H]-Leu SPA
Procedure: Experiments were performed to measure the structural stability of the LeuT protein by TSMs, TTGs and TEMs. Each amphiphilic compound was used at a concentration of (a) CMC+0.04 wt % or (b) CMC+0.2 wt %, and the substrate binding properties of LeuT were measured using [^3H]-Leu via scintillation proximity assay (SPA). The measurement was performed at regular intervals over the course of a 13-day and 12-day incubation at room temperature, respectively.
Specifically, a wild-type leucine transporter (LeuT) derived from the thermophilic bacterium Aquifex aeolicus was purified by a previously described method (Nature 1998, 392, 353-358 by G. Deckert et al.). LeuT was expressed in E. coli C41 (DE3) transformed with pET16b encoding the C-terminal 8×His-tagged transporter (expression plasmids were provided from Dr E. Gouaux, Vollum Institute, Portland, Oregon, USA). In summary, after a bacterial membrane was isolated and solubilized in 1 wt % DDM, the protein was bound to Ni^2+-NTA resin (Life Technologies, Denmark), and eluted in 20 mM Tris-HCl (pH 8.0), 1 mM NaCl, 199 mM KCl, 0.05% (w/v) DDM and 300 mM imidazole. Then, the purified LeuT (0.5 mg/ml) was diluted with buffers supplemented with TSMs, TTGs, TEMs or DDM at a final concentration of CMC+0.04% (w/v) or CMC+0.2% (w/v) except for DDM and imidazole in the equivalent buffer described above. Protein samples were incubated at room temperature for 13 days, centrifuged at a specified time, and protein properties were confirmed by measuring [^3H]-Leucine binding ability using SPA. SPA was performed with 5 μL of each protein sample in a buffer containing 450 mM NaCl and each of TSMs and TEMs (or DDM). The SPA reaction was performed in the presence of 20 nM [^3H]-Leucine and 1.25 mg/ml copper chelate (His-Tag) YSi beads (PerkinElmer, Denmark). Overall [^3H]-Leucine coupling to each sample was measured using a MicroBeta liquid scintillation counter (Perkin Elmer).

[6] = molecular target: AtBOR1 (Arabidopsis thaliana, UniProt Q8VYR7); test: AtBOR1 thermal denaturation, CPM assay; assay type: biochemical; conditions: CMC+0.04 wt %, 40° C., 120 minutes
Procedure: CPM assay: AtBOR1 was concentrated to 10 mg/ml in a buffer (20 mM Tris-HCl (pH 7.5), 150 mM NaCl, 0.03% DDM) with a 100 kDa MWCO centrifugal filter, stored at −80° C. and thawed immediately prior to thermal stability analysis. […] A 7-diethylamino-3-(4′-maleimidylphenyl)-4-methylcoumarin (CPM) dye (Invitrogen) was dissolved in DMSO at 4 mg/ml, and was diluted 1:100 with a buffer (150 mM NaCl supplemented with 20 mM Tris-HCl (pH 7.5) and 0.03% DDM). After 3 μL of the CPM dye was added to each well in the dark, the plate was covered with a transparent lid and the cells were cultured at 40° C. for 120 minutes. Fluorescence emission was monitored every 5 minutes using SpectraMax M2 (Molecular Devices) with a […] of 387 nm and an emission wavelength of 463 nm. Fluorescence readings were normalized under the most unstable conditions to calculate the percentage of proteins that were relatively unfolded. Data was analyzed as a single exponential decay curve using GraphPad Prism 6.

[7] = molecular target: T1, μ-opioid receptor (MOR); test: MOR thermal stability test (CPM dye, melting point Tm); assay type: biochemical; conditions: 0.5 wt % compound, CPM fluorescence, 20° C. to 65° C.
Procedure: An N-[4-(7-diethylamino-4-methyl-3-coumarinyl)phenyl]maleimide (CPM) dye dissolved in DMSO (3 mg/ml) was diluted 40× in a buffer including 20 mM HEPES pH 7.5 and 150 mM NaCl. […] After 1 hour at room temperature, a compound was prepared at a final concentration of 0.5 wt % by diluting the receptor solution 2× in 20 mM HEPES pH 7.5, 150 mM NaCl. After […] of the diluted CPM dye was added thereto, the receptor stability of different compounds was measured by recording the fluorescence spectra (excitation 387 nm) every 5° C. from 20° C. to 65° C. while culturing at each temperature for 2 minutes. The melting point (Tm) was calculated by plotting the read value at 470 nm and fitting a non-linear regression curve using GraphPad Prism.

[8] = tested on: BOR1-GFP fusion protein; test: AtBOR1 thermal stability, fluorescence size exclusion chromatography (FSEC); conditions: 1% detergent, heated at 47° C. for 10 minutes
Procedure: Fluorescence size exclusion chromatography (FSEC): BOR1 of Arabidopsis thaliana was expressed in Saccharomyces cerevisiae FGY217 cells as a fusion protein having a C-terminal GFP tag. The cells were grown in a URA medium supplemented with 0.1% glucose. Protein expression was induced by adding 2% galactose, and then the cells were cultured at 20° C. for 18 hours as previously described. The cells were collected and used to prepare a membrane. The membrane including the BOR1-GFP fusion protein was diluted as follows. […] Samples were cultured while shaking at 4° C. for 1 hour, and then insoluble materials were removed by centrifugation at 14,000 g and 4° C. for 1 hour. A supernatant including the solubilized protein sample was heated at 47° C. for 10 minutes. After additional centrifugation to remove large aggregates, a 200 μl aliquot of the sample was injected into a Superose 6 10/300 column equilibrated with 20 mm Tris (pH 7.5), 150 mm NaCl and 0.03% DDM. The GFP fluorescence of each fraction was read using an excitation wavelength of 470 nm and an emission wavelength of 512 nm.

T1 sequence (P42866 whole entry): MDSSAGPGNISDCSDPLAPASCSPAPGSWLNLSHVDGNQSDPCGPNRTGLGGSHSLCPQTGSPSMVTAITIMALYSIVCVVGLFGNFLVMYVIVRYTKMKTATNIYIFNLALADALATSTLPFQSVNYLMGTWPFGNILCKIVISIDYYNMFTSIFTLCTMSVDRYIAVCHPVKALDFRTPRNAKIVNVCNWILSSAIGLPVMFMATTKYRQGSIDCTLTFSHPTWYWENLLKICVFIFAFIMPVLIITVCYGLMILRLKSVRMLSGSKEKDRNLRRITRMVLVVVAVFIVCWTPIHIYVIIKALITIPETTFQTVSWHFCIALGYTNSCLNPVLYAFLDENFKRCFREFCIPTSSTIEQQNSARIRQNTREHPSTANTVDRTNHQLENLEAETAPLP
Chain of AtBOR1 (Q8VYR7 whole entry): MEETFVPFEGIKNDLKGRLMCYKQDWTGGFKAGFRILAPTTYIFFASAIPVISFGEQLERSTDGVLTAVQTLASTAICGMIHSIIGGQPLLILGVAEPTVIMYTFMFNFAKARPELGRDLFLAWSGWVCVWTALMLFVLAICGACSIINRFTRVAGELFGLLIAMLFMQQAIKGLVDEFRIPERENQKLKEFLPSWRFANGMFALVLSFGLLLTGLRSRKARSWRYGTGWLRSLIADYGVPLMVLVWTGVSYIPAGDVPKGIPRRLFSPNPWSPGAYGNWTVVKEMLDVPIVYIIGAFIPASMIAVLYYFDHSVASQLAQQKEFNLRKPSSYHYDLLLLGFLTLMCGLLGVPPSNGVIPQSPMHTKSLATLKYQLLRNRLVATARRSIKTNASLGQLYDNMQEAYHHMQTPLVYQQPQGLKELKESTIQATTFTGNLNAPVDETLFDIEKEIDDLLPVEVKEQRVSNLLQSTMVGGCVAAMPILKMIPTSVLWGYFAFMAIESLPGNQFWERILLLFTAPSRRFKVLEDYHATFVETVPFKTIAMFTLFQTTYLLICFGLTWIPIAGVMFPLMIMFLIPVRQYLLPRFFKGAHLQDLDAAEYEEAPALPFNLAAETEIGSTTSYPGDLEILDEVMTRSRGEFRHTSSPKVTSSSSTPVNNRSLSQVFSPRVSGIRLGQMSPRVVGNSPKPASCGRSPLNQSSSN

Row | Structure (SMILES) | MOR melting point (Tm) of LMNG, comparison value [1] [°C] | CMC [2] [mM] | Rh (nm) [3] [nm] | solubility [4] [%] | LeuT substrate binding properties over incubation [5] | ability to preserve AtBOR1 in the folded state (CPM) [6] | MOR melting point (Tm) [7] [°C] | AtBOR1 thermal stability by FSEC (protein peak vs aggregation peak) [8]
1 | CCCCCCCCCCC(CCCCCCCCCC)(CO[C@@H]1O[C@H](CO)[C@@H](O[C@H]2O[C@H](CO)[C@@H](O)[C@H](O)[C@H]2O)[C@H](O)[C@H]1O)CO[C@@H]1O[C@H](CO)[C@@H](O[C@H]2O[C@H](CO)[C@@H](O)[C@H](O)[C@H]2O)[C@H](O)[C@H]1O [LMNG] | 38.3 |  |  |  |  |  |  | 
2 | CCCCCCCCCCOc1nc(OCCCCCCCCCC)nc(N(CCO[C@@H]2O[C@H](CO)[C@@H](O[C@H]3O[C@H](CO)[C@@H](O)[C@H](O)[C@H]3O)[C@H](O)[C@H]2O)CCO[C@@H]2O[C@H](CO)[C@@H](O[C@H]3O[C@H](CO)[C@@H](O)[C@H](O)[C@H]3O)[C@H](O)[C@H]2O)n1 [TEM-E10] |  | ~0.005 | 4.5 ± 0.1 | ~5 | best substrate binding activity | best performance | 48.0 | highly effective in maintaining the initial state of the protein
